Here are results for nine compounds from patent publication US8940913B2, “Herbicides” (Syngenta Crop Protection, LLC, priority 2007, dated 2015).

Holding throughout (assay type): in vivo
Test [1] relates to Alopecurus myosuroides (ALOMY). Briefly: Pre-emergence herbicidal activity, glasshouse pot test. To be noted: 480 h, rate 250 g/ha, evaluated 20 days later, 100=total damage to plant, 0=no damage to plant. The procedure: (§1) Monocotyledonous and dicotyledonous test plants were sown in standard soil in pots. After cultivation for one day (pre-emergence) or after 10 days cultivation (post-emergence) under controlled conditions in a glasshouse, the plants were sprayed with an aqueous spray solution derived from the formulation of the technical active ingredient in 0.6 ml acetone and 45 ml formulation solution containing 10.6% Emulsogen EL (Registry number 61791-12-6), 42.2% N-methylpyrrolidone, 42.2% dipropylene glycol monomethyl ether (Registry number 34590-94-8) and 0.2% X-77 (Registry number 11097-66-8). The test plants were then grown in a greenhouse under optimum conditions until, 15 days later for post-emergence and 20 days for pre-emergence, the test was evaluated (100=total damage to plant; 0=no damage to plant). Test Plants: Alopecurus myosuroides (ALOMY), Avena fatua (AVEFA), Lolium perenne (LOLPE), Setaria faberi (SETFA), Digitaria sanguinalis (DIGSA), Echinochloa crus-galli (ECHCG)

In test [2] the test system is Avena fatua (AVEFA). The test is described as above. To be noted: 480 h, rate 250 g/ha, evaluated 20 days later, 100=total damage to plant, 0=no damage to plant. The procedure: as §1
Test [3] concerns Lolium perenne (LOLPE). The description is as above. To be noted: 480 h, rate 250 g/ha, evaluated 20 days later, 100=total damage to plant, 0=no damage to plant. The procedure: as §1
Test [4] concerns Echinochloa crus-galli (ECHCG). The description is as above. Particulars: 480 h, rate 250 g/ha, evaluated 20 days later, 100=total damage to plant, 0=no damage to plant. The protocol:
as §1

Test [5] relates to Digitaria sanguinalis (DIGSA). The test is described as above. Particulars: 480 h, rate 250 g/ha, evaluated 20 days later, 100=total damage to plant, 0=no damage to plant. The procedure:
as §1

For test [6], the system named is Setaria faberi (SETFA). Described as above. To be noted: 480 h, rate 250 g/ha, evaluated 20 days later, 100=total damage to plant, 0=no damage to plant. The protocol: as §1
Test [7] concerns Alopecurus myosuroides (ALOMY). Kind of test: Post-emergence herbicidal activity, glasshouse pot test. Particulars: 360 h, rate 125 g/ha, evaluated 15 days later, 100=total damage to plant, 0=no damage to plant. The protocol: as §1
Test [8] deals with Avena fatua (AVEFA). The test is described as above. To be noted: 360 h, rate 125 g/ha, evaluated 15 days later, 100=total damage to plant, 0=no damage to plant. The procedure:
as §1

Test [9] deals with Lolium perenne (LOLPE). Described as above. Particulars: 360 h, rate 125 g/ha, evaluated 15 days later, 100=total damage to plant, 0=no damage to plant. The protocol: as §1
Test [10] concerns Echinochloa crus-galli (ECHCG). The test is described as above. Particulars: 360 h, rate 125 g/ha, evaluated 15 days later, 100=total damage to plant, 0=no damage to plant. The protocol:
as §1

For test [11], the system named is Digitaria sanguinalis (DIGSA). Described as above. To be noted: 360 h, rate 125 g/ha, evaluated 15 days later, 100=total damage to plant, 0=no damage to plant. The protocol: as §1
The test system of test [12] is Setaria faberi (SETFA). The description is as above. To be noted: 360 h, rate 125 g/ha, evaluated 15 days later, 100=total damage to plant, 0=no damage to plant. The protocol:
as §1

SMILES strings stand for the structures.

Usually pest or weed control stands for how far the test organism was held down. A high value points to a strong effect. In the case of `CCc1ccc(-c2ccc(Cl)c(Cl)c2F)cc1C1=C(O)[C@H]2[C@@H](C1=O)[C@]1(C)CC[C@@]2(C)O1` [Compound T40], the pest or weed control at 250 g/ha was found to be 10% in [1]; 10% in the test on Avena fatua (AVEFA) [2]; 0% in the test with Lolium perenne (LOLPE) [3]; 50% in [4]; 100% in [5]; 70% in the test on Setaria faberi (SETFA) [6]. Further, the pest or weed control at 125 g/ha in test [7] was 60%; with Avena fatua (AVEFA) [8] it was 40%; in the test on Lolium perenne (LOLPE) [9] it was 30%; in test [10], 100%; in test [11], 100%; with Setaria faberi (SETFA) [12], 80%.

Take `CCc1ccc(-c2ccc(Cl)cc2Cl)cc1C1=C(O)[C@H]2[C@@H](C1=O)[C@@H]1CC[C@H]2O1` (racemic) [Compound T11, (1RS,2SR,6RS,7SR)-4-(2′,4′-dichloro-4-ethylbiphen-3-yl)-10-oxa-tricyclo[5.2.1.0^2,6]decane-3,5-dione]: the pest or weed control at 250 g/ha stood at 70% in test [1]; 60% in the test on Avena fatua (AVEFA) [2]; 80% in the test with Lolium perenne (LOLPE) [3]; 100% in test [4]; 90% in test [5]; 100% in the test on Setaria faberi (SETFA) [6]. Moreover, the pest or weed control at 125 g/ha in [7] was 100%; with Avena fatua (AVEFA) [8] it was 90%; in the test with Lolium perenne (LOLPE) [9], 50%; in test [10], 100%; in [11] it was 90%; in the test with Setaria faberi (SETFA) [12] it was 100%.

As to `CCc1ccc(-c2ccc(Cl)cc2)cc1C1=C(O)[C@H]2[C@@H](C1=O)[C@]1(C)CC[C@@]2(C)O1` [Compound T3], the pest or weed control at 250 g/ha in test [1] was determined as 70%; in the test on Avena fatua (AVEFA) [2] it was 80%; in the test on Lolium perenne (LOLPE) [3] it was 80%; in [4], 100%; in [5], 100%; in the test with Setaria faberi (SETFA) [6], 100%. The pest or weed control at 125 g/ha in [7] came out at 100%; in the test with Avena fatua (AVEFA) [8], 90%; in the test on Lolium perenne (LOLPE) [9], 80%; in [10], 90%; in [11], 90%; in the test on Setaria faberi (SETFA) [12], 90%.

As for `CCc1ccc(-c2ccc(Cl)cc2C)cc1C1=C(O)[C@H]2[C@@H](C1=O)[C@@H]1CC[C@H]2O1` [Compound T13], the pest or weed control at 250 g/ha in test [1] was 40%; with Avena fatua (AVEFA) [2] it was 20%; in the test with Lolium perenne (LOLPE) [3] it was 30%; in [4], 70%; in test [5], 80%; in the test on Setaria faberi (SETFA) [6], 80%. Besides, the pest or weed control at 125 g/ha in [7] is 50%; with Avena fatua (AVEFA) [8], 30%; in the test with Lolium perenne (LOLPE) [9], 40%; in test [10], 100%; in test [11], 10%; in the test with Setaria faberi (SETFA) [12], 80%.

On to `CCc1cc(-c2ccc(C)cc2)cc(CC)c1C1C(=O)[C@@H]2[C@H](C1=O)[C@H]1CC[C@@H]2O1` (stereo partly drawn) [Compound T9], for which the pest or weed control at 250 g/ha in test [1] is 70%; with Avena fatua (AVEFA) [2] it was 50%; in the test with Lolium perenne (LOLPE) [3], 80%; in test [4], 100%; in test [5] it was 60%; in the test with Setaria faberi (SETFA) [6] it was 50%. Also, the pest or weed control at 125 g/ha stood at 80% in test [7]; 20% with Avena fatua (AVEFA) [8]; 80% in the test with Lolium perenne (LOLPE) [9]; 100% in test [10]; 80% in test [11]; 70% with Setaria faberi (SETFA) [12].

Consider `Cc1cc(-c2ccccc2)cc(C)c1C1=C(OC(=O)c2c(C)noc2C)[C@H]2[C@@H](C1=O)[C@@H]1CC[C@H]2O1` [Compound P4], for which the pest or weed control at 250 g/ha came out at 100% in test [1]; 50% in the test on Avena fatua (AVEFA) [2]; 90% with Lolium perenne (LOLPE) [3]; 100% in test [4]; 100% in test [5]; 100% in the test on Setaria faberi (SETFA) [6]. For the same compound, the pest or weed control at 125 g/ha was determined as 100% in test [7]; 90% in the test on Avena fatua (AVEFA) [8]; 90% in the test on Lolium perenne (LOLPE) [9]; 100% in test [10]; 80% in [11]; 80% in the test on Setaria faberi (SETFA) [12].

Take `Cc1cc(-c2ccccc2)cc(C)c1C1=C(OC(=O)C(C)(C)C)[C@H]2[C@@H](C1=O)[C@@H]1CC[C@H]2O1` (racemic) [Compound P1, (1RS,2SR,6RS,7SR)-4-(3,5-dimethylbiphenyl-4-yl)-5-oxo-10-oxa-tricyclo[5.2.1.0^2,6]dec-3-en-3-yl 2,2-dimethylpropionate]: the pest or weed control at 250 g/ha in [1] stood at 100%; in the test on Avena fatua (AVEFA) [2], 70%; in the test on Lolium perenne (LOLPE) [3], 100%; in [4] it was 100%; in test [5], 100%; in the test with Setaria faberi (SETFA) [6], 90%. For the same compound, the pest or weed control at 125 g/ha came out at 100% in test [7]; 50% in the test with Avena fatua (AVEFA) [8]; 90% in the test on Lolium perenne (LOLPE) [9]; 100% in test [10]; 80% in test [11]; 80% in the test on Setaria faberi (SETFA) [12].

On to `Cc1ccc(-c2cc(C)c(C3C(=O)[C@@H]4[C@H](C3=O)[C@H]3CC[C@@H]4O3)c(C)c2)cc1` (stereo partly drawn) [Compound T27], for which the pest or weed control at 250 g/ha came to 0% in [1]; 30% in the test on Avena fatua (AVEFA) [2]; 30% in the test on Lolium perenne (LOLPE) [3]; 60% in test [4]; 40% in test [5]; 40% in the test with Setaria faberi (SETFA) [6]. Moreover, the pest or weed control at 125 g/ha worked out at 70% in test [7]; 40% in the test with Avena fatua (AVEFA) [8]; 70% in the test on Lolium perenne (LOLPE) [9]; 70% in [10]; 60% in test [11]; 70% with Setaria faberi (SETFA) [12].

Regarding `Cc1cc(-c2ccccc2)cc(C)c1C1=C(OC(=O)C(C)(C)C)[C@H]2[C@@H](C1=O)[C@]1(C)CC[C@@]2(C)O1` [Compound P5], the pest or weed control at 250 g/ha in test [1] stood at 100%; in the test on Avena fatua (AVEFA) [2], 0%; in the test on Lolium perenne (LOLPE) [3] it was 70%; in [4] it was 70%; in test [5], 100%; with Setaria faberi (SETFA) [6], 100%. For the same compound, the pest or weed control at 125 g/ha in [7] is 70%; in the test on Avena fatua (AVEFA) [8] it was 20%; in the test with Lolium perenne (LOLPE) [9], 40%; in test [10], 100%; in [11], 100%; in the test on Setaria faberi (SETFA) [12] it was 90%.
